Measured values taken from ChEMBL document CHEMBL4665869, “New thiazolopyrimidine as anticancer agents: Synthesis, biological evaluation, DNA binding, molecular modeling and ADMET study” (Bioorg Med Chem Lett, 2020).
Converted amounts (≈) assume the structure as drawn. The source made the active and inactive calls. No cut-off for these calls is given here.

Key:
CAKI-1 = assay: Growth inhibition of human CAKI-1 cells at 10 uM relative to control; assay type: functional
OVCAR-5 = assay: Growth inhibition of human OVCAR-5 cells at 10 uM relative to control; assay type: functional
SR = assay: Growth inhibition of human SR cells at 10 uM relative to control; assay type: functional
T47D = assay: Growth inhibition of human T47D cells at 10 uM relative to control; assay type: functional; details: read-out: GI
HCC 2998 = assay: Growth inhibition of human HCC 2998 cells at 10 uM relative to control; assay type: functional
[1] = Growth inhibition of human ovarian cancer cells; assay type: functional; details: Ovarian cancer cell line
BT-549 = assay: Growth inhibition of human BT-549 cells at 10 uM relative to control; assay type: functional
786-0 = assay: Growth inhibition of human 786-0 cells at 10 uM relative to control; assay type: functional
SN12C = assay: Growth inhibition of human SN12C cells at 10 uM relative to control; assay type: functional
A549 = assay: Growth inhibition of human A549 cells at 10 uM relative to control; assay type: functional
LOX IMVI = assay: Growth inhibition of human LOX IMVI cells at 10 uM relative to control; assay type: functional
TK-10 = assay: Growth inhibition of human TK-10 cells at 10 uM relative to control; assay type: functional
[2] = Growth inhibition of human prostate cancer cells; assay type: functional; details: Prostate tumor cell line
IGROV-1 = assay: Growth inhibition of human IGROV-1 cells at 10 uM relative to control; assay type: functional
CCRF-CEM = assay: Growth inhibition of human CCRF-CEM cells at 10 uM relative to control; assay type: functional
[3] = Growth inhibition of human colon cancer cells; assay type: functional; details: Colon cancer cell line
UACC-62 = assay: Growth inhibition of human UACC-62 cells at 10 uM relative to control; assay type: functional
SK-OV-3 = assay: Growth inhibition of human SK-OV-3 cells at 10 uM relative to control; assay type: functional
DU-145 = assay: Growth inhibition of human DU-145 cells at 10 uM relative to control; assay type: functional
K562 = assay: Growth inhibition of human K562 cells at 10 uM relative to control; assay type: functional; details: read-out: GI
NCI-H226 = assay: Growth inhibition of human NCI-H226 cells at 10 uM relative to control; assay type: functional; details: read-out: GI
COLO 205 = assay: Growth inhibition of human COLO 205 cells at 10 uM relative to control; assay type: functional
RPMI-8226 = assay: Growth inhibition of human RPMI-8226 cells at 10 uM relative to control; assay type: functional
HOP-92 = assay: Growth inhibition of human HOP-92 cells at 10 uM relative to control; assay type: functional
SK-MEL-5 = assay: Growth inhibition of human SK-MEL-5 cells at 10 uM relative to control; assay type: functional
HT-29 = assay: Growth inhibition of human HT-29 cells at 10 uM relative to control; assay type: functional
MCF7 = assay: Growth inhibition of human MCF7 cells at 10 uM relative to control; assay type: functional
DNA = assay: Displacement of methyl green from DNA (unknown origin) assessed as DNA intercalation after 24 hrs by colorimetric assay; assay type: nucleic-acid assay
SNB-19 = assay: Growth inhibition of human SNB-19 cells at 10 uM relative to control; assay type: functional; details: read-out: GI
MOLT-4 = assay: Growth inhibition of human MOLT-4 cells at 10 uM relative to control; assay type: functional
MDA-MB-435 = assay: Growth inhibition of human MDA-MB-435 cells at 10 uM relative to control; assay type: functional
HCT-15 = assay: Growth inhibition of human HCT-15 cells at 10 uM relative to control; assay type: functional
[4] = Growth inhibition of human CNS cancer cells; assay type: functional; details: CNS cell
NCI-H460 = assay: Growth inhibition of human NCI-H460 cells at 10 uM relative to control; assay type: functional
[5] = tested on: Panel NCI-60 (60 carcinoma cell lines); assay: Growth inhibition of human NCI60 cells; assay type: functional
NCI-H522 = assay: Growth inhibition of human NCI-H522 cells at 10 uM relative to control; assay type: functional
MDA-MB-468 = assay: Growth inhibition of human MDA-MB-468 cells at 10 uM relative to control; assay type: functional
HL-60(TB) = assay: Growth inhibition of human HL-60(TB) cells at 10 uM relative to control; assay type: functional
OVCAR-8 = assay: Growth inhibition of human OVCAR-8 cells at 10 uM relative to control; assay type: functional; details: read-out: GI
M14 = assay: Growth inhibition of human M14 cells at 10 uM relative to control; assay type: functional
[6] = Growth inhibition of human Non-small cell lung cancer cells; assay type: functional; details: Non-small cell lung cancer cell line
SF-268 = assay: Growth inhibition of human SF-268 cells at 10 uM relative to control; assay type: functional
A498 = assay: Growth inhibition of human A498 cells at 10 uM relative to control; assay type: functional
SK-MEL-2 = assay: Growth inhibition of human SK-MEL-2 cells at 10 uM relative to control; assay type: functional
Melanoma cell line = assay: Growth inhibition of human melanoma cancer cells; assay type: functional
Hs-578T = assay: Growth inhibition of human Hs-578T cells at 10 uM relative to control; assay type: functional; details: read-out: GI
Leukemia cell = assay: Growth inhibition of human leukemia cancer cells; assay type: functional
PC-3 = assay: Growth inhibition of human PC-3 cells at 10 uM relative to control; assay type: functional
SNB-75 = assay: Growth inhibition of human SNB-75 cells at 10 uM relative to control; assay type: functional; details: read-out: GI
[7] = Growth inhibition of human breast cancer cells; assay type: functional; details: Breast cancer cell line
U-251 = assay: Growth inhibition of human U-251 cells at 10 uM relative to control; assay type: functional
UACC-257 = assay: Growth inhibition of human UACC-257 cells at 10 uM relative to control; assay type: functional
SF-295 = assay: Growth inhibition of human SF-295 cells at 10 uM relative to control; assay type: functional
MDA-MB-231 = assay: Growth inhibition of human MDA-MB-231 cells at 10 uM relative to control; assay type: functional
OVCAR-4 = assay: Growth inhibition of human OVCAR-4 cells at 10 uM relative to control; assay type: functional; details: read-out: GI
[8] = read-out: LC50 (the source's name)

COc1cc(/C=C/C2=CC(c3cc(OC)c(OC)c(OC)c3)N3C=C(C)SC3=N2)cc(OC)c1OC (stereo not drawn)
growth inhibition (GI) (CAKI-1): Active | growth inhibition (GI) (OVCAR-5): Active | growth inhibition (GI) (SR): Active | inhibition of growth at 10 µM (T47D): 92% | growth inhibition (GI) (HCC 2998): Active | GI50 [1]: 1.75 µM | TGI [1]: 33.9 µM | CC50 [1, 8]: 76.5 µM | growth inhibition (GI) (BT-549): Active | growth inhibition (GI) (786-0): Active | growth inhibition (GI) (SN12C): Active | growth inhibition (GI) (A549): Active | growth inhibition (GI) (LOX IMVI): Active | growth inhibition (GI) (TK-10): Active | GI50 [2]: 1.69 µM | TGI [2]: 52.9 µM | CC50 [2, 8]: > 100 µM | growth inhibition (GI) (IGROV-1): Active | growth inhibition (GI) (CCRF-CEM): Active | GI50 [3]: 0.92 µM | TGI [3]: 3.62 µM | CC50 [3, 8]: 36 µM | growth inhibition (GI) (UACC-62): Active | growth inhibition (GI) (SK-OV-3): Active | growth inhibition (GI) (DU-145): Active | inhibition of growth at 10 µM (K562): 97.8% | inhibition of growth at 10 µM (NCI-H226): 97.3% | growth inhibition (GI) (COLO 205): Active | growth inhibition (GI) (RPMI-8226): Active | growth inhibition (GI) (HOP-92): Active | growth inhibition (GI) (SK-MEL-5): Active | growth inhibition (GI) (HT-29): Active | growth inhibition (GI) (MCF7): Active | IC50 (DNA): 36.13 µg/mL (≈ 70.8 µM) | inhibition of growth at 10 µM (SNB-19): 66.5% | growth inhibition (GI) (MOLT-4): Active | growth inhibition (GI) (MDA-MB-435): Active | growth inhibition (GI) (HCT-15): Active | GI50 [4]: 1.85 µM | TGI [4]: 10.2 µM | CC50 [4, 8]: 54.2 µM | growth inhibition (GI) (NCI-H460): Active | GI50 [5]: 1.07 µM | LC50 [5]: 34.7 µM | TGI [5]: 6.61 µM | growth inhibition (GI) (NCI-H522): Active | growth inhibition (GI) (MDA-MB-468): Active | growth inhibition (GI) (HL-60(TB)): Active | inhibition of growth at 10 µM (OVCAR-8): 91.9% | growth inhibition (GI) (M14): Active | GI50 [6]: 1.94 µM | TGI [6]: 4.81 µM | CC50 [6, 8]: 62.9 µM | growth inhibition (GI) (SF-268): Active | growth inhibition (GI) (A498): Active | growth inhibition (GI) (SK-MEL-2): Active | GI50 (Melanoma cell line): 0.99 µM | TGI (Melanoma cell line): 3.37 µM | CC50 (Melanoma cell line; [8]): 18.2 µM | inhibition of growth at 10 µM (Hs-578T): 98% | GI50 (Leukemia cell): 0.43 µM | TGI (Leukemia cell): 61.9 µM | CC50 (Leukemia cell; [8]): > 100 µM | growth inhibition (GI) (PC-3): Active | inhibition of growth at 10 µM (SNB-75): 75.6% | GI50 [7]: 1.39 µM | TGI [7]: 17.9 µM | CC50 [7, 8]: 68.7 µM | growth inhibition (GI) (U-251): Active | growth inhibition (GI) (UACC-257): Active | growth inhibition (GI) (SF-295): Active | growth inhibition (GI) (MDA-MB-231): Active | inhibition of growth at 10 µM (OVCAR-4): 88.4%
